According to patent US9193695B2, “1, 2, 4-triazolone derivative and use thereof as an antagonist on the arginine-vasopressin 1B receptor” (TAISHO PHARMACEUTICAL CO., LTD., priority 2010, dated 2015):
Counter-ions that a name gives are not always drawn.

Molecular target: T1, Human V1b receptor (Homo sapiens, UniProt P47901)
T1 sequence (P47901 1-424): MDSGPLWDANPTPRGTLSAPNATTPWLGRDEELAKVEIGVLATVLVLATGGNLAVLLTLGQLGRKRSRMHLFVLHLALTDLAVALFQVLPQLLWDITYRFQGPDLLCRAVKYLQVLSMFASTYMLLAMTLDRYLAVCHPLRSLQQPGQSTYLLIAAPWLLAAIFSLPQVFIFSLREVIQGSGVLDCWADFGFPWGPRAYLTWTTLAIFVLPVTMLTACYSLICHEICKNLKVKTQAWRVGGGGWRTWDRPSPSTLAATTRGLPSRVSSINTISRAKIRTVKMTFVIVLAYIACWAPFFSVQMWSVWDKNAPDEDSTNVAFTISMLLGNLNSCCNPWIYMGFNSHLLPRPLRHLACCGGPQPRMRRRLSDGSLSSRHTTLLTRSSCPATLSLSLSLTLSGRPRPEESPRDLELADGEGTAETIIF
Assay: Binding test for V1b receptor ([3H]AVP displacement, crude membrane preparation)
Set-up: expressed in transfected cells; host or cells: 293FT cells (Invitrogen), transient expression; crude membrane preparation
Settings: [3H]AVP 0.4 to 1 nmol/L; membranes of 293FT cells transiently expressing human V1b receptor; room temperature, 60 minutes
Procedure: Binding Test for V1b Receptor
Human V1b receptor was transiently expressed in 293FT cells (Invitrogen). The cells were collected and were homogenated in a 15 mmol/L tris-hydrochloric acid buffer (pH 7.4, containing 2 mmol/L magnesium chloride, 0.3 mmol/L ethylenediaminetetracetic acid, and 1 mmol/L glycol ether diaminetetraacetic acid). The resulting homogenate was centrifuged at 50,000×g at 4° C. for 20 minutes. The precipitate was resuspended in a 75 mmol/L tris-hydrochloric acid buffer (pH 7.4, containing 12.5 mmol/L magnesium chloride, 0.3 mmol/L ethylenediaminetetracetic acid, 1 mmol/L glycol ether diamine tetraacetic acid, and 250 mmol/L sucrose) to give a crude membrane preparation, which was stored at −80° C. until the binding test. In the binding test, the crude membrane preparation was diluted with a 50 mmol/L tris-hydrochloric acid buffer (pH 7.4, containing 10 mmol/L magnesium chloride and 0.1% bovine serum albumin), and test compound was serially diluted with DMSO. The diluted crude membrane preparation was incubated with each test compound (final concentration of 0.01 nmol/L to 1 μmol/L) and [^3H]AVP (final concentration: 0.4 to 1 nmol/L) at room temperature for 60 minutes. After the incubation, the mixture was suction filtered through a GF/C filter pretreated with 0.3% polyethyleneimine. The GF/C filter was dried, and a scintillator was added thereto. The radioactivity remaining on the filter was measured using TopCount (PerkinElmer Inc.). The radioactivity in the presence of 10 μmol/L of unlabeled AVP was defined as 0%, and the radioactivity in the absence of unlabeled AVP was defined as 100%. A dose-response curve was plotted from radioactivities in the presence of a test compound at various concentrations, and the 50% inhibitory concentration (IC50 value) of the compound was calculated.

IC50	SMILES
4.1 nM	COc1cccc(-c2nn(-c3ccc(CCN4CCOCC4)cn3)c(=O)n2CC(=O)NC(C)(C)C)c1 [Bd-1, N-Tert-Butyl-2-[3-(3-methoxyphenyl)-1-{5-[2-(morpholin-4-yl)ethyl]pyridin-2-yl}-5-oxo-1,5-dihydro-4H-1,2,4-triazol-4-yl]acetamide]
10 to 100 nM	COc1cc(-c2nn(-c3ccc(CCN4C[C@@H](C)O[C@@H](C)C4)cc3)c(=O)n2CC(=O)NC(C)C)ccc1F [Ca-20, 2-[1-(4-{2-[(2R,6S)-2,6-Dimethylmorpholin-4-yl]ethyl}phenyl)-3-(4-fluoro-3-methoxyphenyl)-5-oxo-1,5-dihydro-4H-1,2,4-triazol-4-yl]-N-(propan-2-yl)acetamide]
100 to 1000 nM	CCCC1CCN(CCc2ccc(-n3nc(-c4ccc(F)c(OC)c4)n(CC(=O)NC(C)C)c3=O)cc2)CC1 [Ca-12, 2-[3-(4-Fluoro-3-methoxyphenyl)-5-oxo-1-{4-[2-(4-propylpiperidin-1-yl)ethyl]phenyl}-1,5-dihydro-4H-1,2,4-triazol-4-yl]-N-(propan-2-1)acetamide]
56 nM	CC(C)NC(=O)Cn1c(-c2cccc(Cl)c2)nn(-c2ccc(CCN3CCC(O)C3)cc2)c1=O (centres unmarked) [Aa-6, 2-[3-(3-Chlorophenyl)-1-{4-[2-(3-hydroxypyrrolidin-1-yl)ethyl]phenyl}-5-oxo-1,5-dihydro-4H-1,2,4-triazol-4-yl]-N-(propan-2-yl)acetamide]
2.5 nM	CC(C)(C)NC(=O)Cn1c(-c2cccc(Cl)c2)nn(-c2ccc(CCN3CCOCC3)cc2)c1=O [Ad-1, N-Tert-Butyl-2-[3-(3-chlorophenyl)-1-{4-[2-(morpholin-4-yl)ethyl]phenyl}-5-oxo-1,5-dihydro-4H-1,2,4-triazol-4-yl]acetamide]
46 nM	CC(C)NC(=O)Cn1c(-c2cccc(F)c2)nn(-c2ccc(CCN3CCOCC3)cc2)c1=O [Fa-1, 2-[3-(3-Fluorophenyl)-1-{4-[2-(morpholin-4-yl)ethyl]phenyl}-5-oxo-1,5-dihydro-4H-1,2,4-triazol-4-yl]-N-(propan-2-yl)acetamide]
10 to 100 nM	COc1cc(-c2nn(-c3ccc(CCN4CCCC4)cc3)c(=O)n2CC(=O)NC(C)C)ccc1F [Ca-24, 2-[3-(4-Fluoro-3-methoxyphenyl)-5-oxo-1-{4-[2-(pyrrolidin-1-yl)ethyl]phenyl}-1,5-dihydro-4H-1,2,4-triazol-4-yl]-N-(propan-2-yl)acetamide formate]
5.1 nM	CC(C)NC(=O)Cn1c(-c2cccc(Cl)c2)nn(-c2ccc(CC(C)N3CCOCC3)cn2)c1=O (centres unmarked) [Ad-15, 2-[3-(3-Chlorophenyl)-1-{5-[2-(morpholin-4-yl)propyl]pyridin-2-yl}-5-oxo-1,5-dihydro-4H-1,2,4-triazol-4-yl]-N-(propan-2-yl)acetamide]
10 nM	CC(C)NC(=O)Cn1c(-c2ccc(F)c(Cl)c2)nn(-c2ccc(CCN3CC4(COC4)C3)cn2)c1=O [Db-3, 2-[3-(3-Chloro-4-fluorophenyl)-1-{5-[2-(2-oxa-6-azaspiro[3.3]hept-6-yl)ethyl]pyridin-2-yl}-5-oxo-1,5-dihydro-4H-1,2,4-triazol-4-yl]-N-(propan-2-yl)acetamide]
100 to 1000 nM	COc1cc(-c2nn(-c3ccc(CCN4CCN(C)CC4)cc3)c(=O)n2CC(=O)NC(C)C)ccc1F [Ca-25, 2-[3-(4-Fluoro-3-methoxyphenyl)-1-{4-[2-(4-methylpiperazin-1-yl)ethyl]phenyl}-5-oxo-1,5-dihydro-4H-1,2,4-triazol-4-yl]-N-(propan-2-yl)acetamide trifluoroacetate]
100 to 1000 nM	COc1cc(-c2nn(-c3ccc(CCN4CCC(N(C)C)CC4)cc3)c(=O)n2CC(=O)NC(C)C)ccc1F [Ca-14, 2-[1-(4-{2-[4-(Dimethylamino)piperidin-1-yl]ethyl}phenyl)-3-(4-fluoro-3-methoxyphenyl)-5-oxo-1,5-dihydro-4H-1,2,4-triazol-4-yl]-N-(propan-2-yl)acetamide]
16 nM	COc1cccc(-c2nn(-c3ccc(CCN4CCOCC4)cc3)c(=O)n2CC(=O)NC(C)C)n1 [Ja-1, 2-[3-(6-Methoxypyridin-2-yl)-1-{4-[2-(morpholin-4-yl)ethyl]phenyl}-5-oxo-1,5-dihydro-4H-1,2,4-triazol-4-yl]-N-(propan-2-yl)acetamide]
10 to 100 nM	CCC1COCCN1CCc1ccc(-n2nc(-c3ccc(F)c(OC)c3)n(CC(=O)NC(C)C)c2=O)cc1 (centres unmarked) [Ca-23, 2-[1-{4-[2-(3-Ethylmorpholin-4-yl)ethyl]phenyl}-3-(4-fluoro-3-methoxyphenyl)-5-oxo-1,5-dihydro-4H-1,2,4-triazol-4-yl]-N-(propan-2-yl)acetamide]
100 to 1000 nM	COc1cc(-c2nn(-c3ccc(CCN4CCC(C(F)(F)F)CC4)cc3)c(=O)n2CC(=O)NC(C)C)ccc1F [Ca-19, 2-[3-(4-Fluoro-3-methoxyphenyl)-5-oxo-1-(4-{2-[4-(trifluoromethyl)piperidin-1-yl]ethyl}phenyl)-1,5-dihydro-4H-1,2,4-triazol-4-yl]-N-(propan-2-yl)acetamide trifluoroacetate]
55 nM	CC(C)(CO)NC(=O)Cn1c(-c2cccc(Cl)c2)nn(-c2ccc(CCN3CCOCC3)cc2)c1=O [Ad-3, 2-[3-(3-Chlorophenyl)-1-{4-[2-(morpholin-4-yl)ethyl]phenyl}-5-oxo-1,5-dihydro-4H-1,2,4-triazol-4-yl]-N-(1-hydroxy-2-methylpropan-2-yl)acetamide]

SMILES	IC50
COc1cccc(-c2nn(-c3ccc(CCN4C5CCC4COC5)cc3)c(=O)n2CC(=O)NC(C)C)n1 [Ja-2, 2-[3-(6-Methoxypyridin-2-yl)-1-{4-[2-(3-oxa-8-azabicyclo[3.2.1]oct-8-yl)ethyl]phenyl}-5-oxo-1,5-dihydro-4H-1,2,4-triazol-4-yl]-N-(propan-2-yl)acetamide]	20 nM
COc1cc(-c2nn(-c3ccc(CC(C)N4C5CCC4COC5)cc3)c(=O)n2CC(=O)NC(C)C)ccc1F (centres unmarked) [Cd-2, 2-[3-(4-Fluoro-3-methoxyphenyl)-1-{4-[2-(3-oxa-8-azabicyclo[3.2.1]oct-8-yl)propyl]phenyl}-5-oxo-1,5-dihydro-4H-1,2,4-triazol-4-yl]-N-(propan-2-yl)acetamide]	0.51 nM
COc1cccc(-c2nn(-c3ccc(CC(C)N4C5CCC4COC5)cc3)c(=O)n2CC(=O)NC(C)(C)C)c1 (centres unmarked) [Bd-3, N-Tert-Butyl-2-[3-(3-methoxyphenyl)-1-{4-[2-(3-oxa-8-azabicyclo[3.2.1]oct-8-yl)propyl]phenyl}-5-oxo-1,5-dihydro-4H-1,2,4-triazol-4-yl]acetamide]	0.21 nM
COc1cccc(-c2nn(-c3ccc(CC(C)N4C5CCC4COC5)cn3)c(=O)n2CC(=O)NC(C)(C)C)c1 (centres unmarked) [Bd-4, N-Tert-Butyl-2-[3-(3-methoxyphenyl)-1-{5-[2-(3-oxa-8-azabicyclo[3.2.1]oct-8-yl)propyl]pyridin-2-yl}-5-oxo-1,5-dihydro-4H-1,2,4-triazol-4-yl]acetamide]	0.44 nM
COc1cc(-n2nc(-c3cccc(Cl)c3)n(CC(=O)NC(C)C)c2=O)ccc1CCN1C2CCC1COC2 [Ad-10, 2-[3-(3-Chlorophenyl)-1-{3-methoxy-4-[2-(3-oxa-8-azabicyclo[3.2.1]oct-8-yl)ethyl]phenyl}-5-oxo-1,5-dihydro-4H-1,2,4-triazol-4-yl]-N-(propan-2-yl)acetamide]	1.3 nM
CC(C)NC(=O)Cn1c(-c2ccc(F)c(Cl)c2)nn(-c2ccc(CCN3C4CCC3COC4)cn2)c1=O [Db-4, 2-[3-(3-Chloro-4-fluorophenyl)-1-{5-[2-(3-oxa-8-azabicyclo[3.2.1]oct-8-yl)ethyl]pyridin-2-yl}-5-oxo-1,5-dihydro-4H-1,2,4-triazol-4-yl]-N-(propan-2-yl)acetamide]	2.9 nM
CC(C)NC(=O)Cn1c(-c2cccc(Cl)c2)nn(-c2ccc(CC(C)N3C4CCC3COC4)cn2)c1=O (single isomer, unassigned; (+)) [Ad-19-2]	17 nM
CC(C)NC(=O)Cn1c(-c2cccc(Cl)c2)nn(-c2ccc(CCN3C4CCC3COC4)c(F)c2)c1=O [Ad-8, 2-[3-(3-Chlorophenyl)-1-{3-fluoro-4-[2-(3-oxa-8-azabicyclo[3.2.1]oct-8-yl)ethyl]phenyl}-5-oxo-1,5-dihydro-4H-1,2,4-triazol-4-yl]-N-(propan-2-yl)acetamide]	1.5 nM
